Drawing on ChEMBL document CHEMBL1255331, “Emergence of fluoroquinolone resistance in group B streptococcal isolates in Taiwan” (2008), this text covers MIC for 6 compounds.

Structures are written as SMILES. ≈ marks a conversion by molar mass, not a printed value.

The first assay has as its system Streptococcus sp. 'group B'. Description: Antimicrobial activity against Streptococcus sp. 'group B' isolate 16 harboring gyrA Ser81Leu mutant, parC Ser79Tyr mutant and parE Ileu495Leu mutant gene by agar dilution method. The assay is classed as functional. (In general: In agar dilution, organisms are placed on agar that contains the substance at set levels.)
For `C[C@H]1NCc2cc(-c3ccc4c(=O)c(C(=O)O)cn(C5CC5)c4c3OC(F)F)ccc21` [GARENOXACIN], the lowest concentration to inhibit growth (MIC) was 2 µg/mL (≈ 4.69 µM).

As for `COc1c(N2C[C@@H]3CCCN[C@@H]3C2)c(F)cc2c(=O)c(C(=O)O)cn(C3CC3)c12` [MOXIFLOXACIN], inhibition of growth (MIC) required 4 µg/mL (≈ 9.96 µM).

Consider `COc1c(N2CCNC(C)C2)c(F)cc2c(=O)c(C(=O)O)cn(C3CC3)c12` (configuration not stated) [GATIFLOXACIN], for which 8 µg/mL (≈ 21.3 µM) was the least that counted as inhibitory (MIC).

The compound `N[C@@H]1[C@H]2CN(c3nc4c(cc3F)c(=O)c(C(=O)O)cn4-c3ccc(F)cc3F)C[C@@H]12` [TROVAFLOXACIN] came in with a minimal inhibitory concentration (MIC) of 16 µg/mL (≈ 38.4 µM).

Consider `C[C@H]1COc2c(N3CCN(C)CC3)c(F)cc3c(=O)c(C(=O)O)cn1c23.C[C@H]1COc2c(N3CCN(C)CC3)c(F)cc3c(=O)c(C(=O)O)cn1c23.O` [LEVOFLOXACIN], for which the MIC turned out to be 32 µg/mL.

In turn, `O=C(O)c1cn(C2CC2)c2cc(N3CCNCC3)c(F)cc2c1=O` [CIPROFLOXACIN] showed an MIC of 32 µg/mL (≈ 96.6 µM).

A further assay has as its system Streptococcus sp. 'group B'. In words: Antimicrobial activity against Streptococcus sp. 'group B' isolate 9 harboring gyrA Ser81Leu mutant, parC Ser79Tyr mutant and parE Ileu495Leu mutant gene by agar dilution method. The assay is classed as functional.
With `C[C@H]1NCc2cc(-c3ccc4c(=O)c(C(=O)O)cn(C5CC5)c4c3OC(F)F)ccc21` [GARENOXACIN], 2 µg/mL (≈ 4.69 µM) was the least that counted as inhibitory (MIC).

For the compound `COc1c(N2C[C@@H]3CCCN[C@@H]3C2)c(F)cc2c(=O)c(C(=O)O)cn(C3CC3)c12` [MOXIFLOXACIN], the MIC is 4 µg/mL (≈ 9.96 µM).

In turn, `COc1c(N2CCNC(C)C2)c(F)cc2c(=O)c(C(=O)O)cn(C3CC3)c12` (configuration not stated) [GATIFLOXACIN] registered an MIC of 4 µg/mL (≈ 10.7 µM).

Turning to `N[C@@H]1[C@H]2CN(c3nc4c(cc3F)c(=O)c(C(=O)O)cn4-c3ccc(F)cc3F)C[C@@H]12` [TROVAFLOXACIN], the MIC worked out at 8 µg/mL (≈ 19.2 µM).

For the compound `C[C@H]1COc2c(N3CCN(C)CC3)c(F)cc3c(=O)c(C(=O)O)cn1c23.C[C@H]1COc2c(N3CCN(C)CC3)c(F)cc3c(=O)c(C(=O)O)cn1c23.O` [LEVOFLOXACIN], it took 16 µg/mL to inhibit growth (MIC).

For `O=C(O)c1cn(C2CC2)c2cc(N3CCNCC3)c(F)cc2c1=O` [CIPROFLOXACIN], 64 µg/mL (≈ 193 µM) was the least that counted as inhibitory (MIC).

In the next assay the test system is Streptococcus sp. 'group B'. Description: Antimicrobial activity against Streptococcus sp. 'group B' isolate 1 harboring gyrA Glu85Lys mutant, parC Ser79Tyr mutant and parE Ileu495Leu mutant gene by agar dilution method. The assay is classed as functional.
In the case of `C[C@H]1NCc2cc(-c3ccc4c(=O)c(C(=O)O)cn(C5CC5)c4c3OC(F)F)ccc21` [GARENOXACIN], it took 2 µg/mL (≈ 4.69 µM) to inhibit growth (MIC).

`COc1c(N2C[C@@H]3CCCN[C@@H]3C2)c(F)cc2c(=O)c(C(=O)O)cn(C3CC3)c12` [MOXIFLOXACIN]: it took 2 µg/mL (≈ 4.98 µM) to inhibit growth (MIC).

`COc1c(N2CCNC(C)C2)c(F)cc2c(=O)c(C(=O)O)cn(C3CC3)c12` (configuration not stated) [GATIFLOXACIN] registered an MIC of 4 µg/mL (≈ 10.7 µM).

For `N[C@@H]1[C@H]2CN(c3nc4c(cc3F)c(=O)c(C(=O)O)cn4-c3ccc(F)cc3F)C[C@@H]12` [TROVAFLOXACIN], inhibition of growth (MIC) required 8 µg/mL (≈ 19.2 µM).

For `C[C@H]1COc2c(N3CCN(C)CC3)c(F)cc3c(=O)c(C(=O)O)cn1c23.C[C@H]1COc2c(N3CCN(C)CC3)c(F)cc3c(=O)c(C(=O)O)cn1c23.O` [LEVOFLOXACIN], inhibition of growth (MIC) required 16 µg/mL.

Usually MIC stands for the smallest concentration in the dilution series that meets the test's criterion for growth inhibition. High values mean a need for much substance, low ones inhibition by little substance.
